The values below come from PMC12019328, “Discovery of an ApoE4-targeted small-molecule SirT1 enhancer for the treatment of Alzheimer’s disease” (Scientific Reports, 2025).

Molecules are shown by their SMILES. “Also recorded” adds a separate entry of the source. Bounds are passed on as bounds.

For series [1], the system named is SirT1 mRNA in N2a-E4 cells. In words: SirT1 mRNA in N2a-E4 cells (qRT-PCR). It counts as cell-based, murine. The settings on record: 5 µM, 24 h, normalized to GAPDH and DMSO. Here is the method:
Relative SirT1 mRNA and protein enhancement by racemate DDL-214 and enantiomers DDL-218 and − 219 was determined in murine neuroblastoma cells stably transfected with ApoE4 (N2a-E4)[25]. All test compounds in DMSO were prepared at 2x the final concentration in DMEM supplemented with 10% fetal bovine serum (FBS) and 1% pen-strep (PS) and 50 µL of each loaded into individual wells of a 96-well plate. Previously cultured N2a-E4 were then trypsinized, harvested, centrifuged, and counted; then 50 µL of cell suspension adjusted to 400 cells/µL was added to each well. The plate was then incubated at 37 °C, 5% CO2 for 48 h. Cells were treated with DDL-214, DDL-218, or DDL-219 at 5 µM final then incubated for 24 h. […]
Total RNA was isolated from cells or brain tissue (Qiagen RNEasy kit). Total RNA (0.5–1.0 µg) mRNA was then converted to cDNA (SuperScript™ III First-Strand Synthesis SuperMix kit; Thermo Fisher), and gene mRNA levels were measured using a gene-specific qRT-PCR Taqman assays (Thermo Fisher). Gene mRNA levels were normalized to GAPDH mRNA levels measured either in the same cDNA sample or in the same qPCR reaction using multiplexing of gene-of-interest/VIC and GAPDH/FAM, normalized by the delta-delta-Ct method.
(Real-time PCR tracks product formation cycle by cycle.)

Series [2] in a line: Liver microsome stability. It counts as in vitro ADME. The settings on record: pH 7.4; human liver microsomes 0.5 mg/mL, NADPH, 37 °C; read-out: Microsomal stability t1/2. On the procedure: page 6: A03 DDL-214 Figure S3B. SirT1 protein levels in N2a-E4 cells after A03 and DDL-214 treatment. Compound treatment was done at 5 and 50 µM. SirT1 levels were measured by AlphaLISA followed and normalized to protein concentration DDL-218 Physiochemical Properties Physiochemical properties of DDL-218 are shown in Table S2. Brain Tissue Binding [fu,bound (%)] Brain tissue was homogenized in PBS (pH 7.4) (1: 3 weight(mg)/volume(µL)) and the protein concentration of was determined using the Micro BCA™ Protein Assay Kit (Thermo Fisher Scientific, Cat#23235). Brain homogenate was diluted to 20 mg/mL in PBS (pH 7.4) and added to Slide-A-Lyzer™ MINI Dialysis Devices, 10K MWCO dialysis cups (Thermo Fisher Scientific, Cat#PI88401) in 48-well plate containing PBS (500 µL; pH 7.4). 1 µL of 1 mM compound was added to the brain homogenate (Final Concentration: 2 µM compound, 0.5% DMSO) and incubated on a rocker for 4.5 hours at 37 °C. […] The % of the unbound drug (fu,bound) was calculated using the following equation: fu,bound = [normalized peak area in buffer side / normalized peak area in brain side] x 100 Liver Microsome Stability [t1/2 (min)] […] An aliquot (50 µL) of each supernatant was analyzed by LC-MS/MS. […] Aliquots (50 µL) of supernatant were analyzed by LC-MS/MS to create the standard curve. […]
A general note: Liver microsomes are vesicles of endoplasmic reticulum, rich in cytochrome P450 enzymes.

Regarding `CC(N)C(=O)OC(C)(C)Cc1ccncc1` (centres unmarked) [DDL-218], in series [1], the “SirT1 mRNA” value is “greatest increase; also recorded: significantly increased SirT1 mRNA”. Further, in series [2], the half-life is over 2.33 h.
